Measurements: PubChem BioAssay AID248 (DTP/NCI, 2004)
Inconclusive results and toxic doses are left out. No stated cut-off is given here; in the data, active means T/C of 150% or more; inactive means T/C below 125%.

Tested on: L1210 leukemia ip in BDF1 mice, survival T/C
Test: NCI In Vivo Anticancer Drug Screen. Data for tumor model L1210 Leukemia (intraperitoneal) in B6D2F1 (BDF1) mice
Conditions: endpoint: mean survival time, higher = longer survival
How it was run: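 Read-out is survival time, reported as the treated-group measurement over the vehicle-control measurement.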

[1] = dose: 100.0 mg/kg/injection, schedule: Q01DX001 (ip), vehicle: saline
[2] = dose: 400.0 mg/kg/injection, schedule: Q01DX001 (ip), vehicle: saline
[3] = dose: 50.0 mg/kg/injection, schedule: Q01DX001 (ip), vehicle: carboxymethylcellulose (CMC)
[4] = dose: 100.0 mg/kg/injection, schedule: Q01DX001 (ip), vehicle: carboxymethylcellulose (CMC)
[5] = dose: 200.0 mg/kg/injection, schedule: Q01DX001 (ip), vehicle: carboxymethylcellulose (CMC)
[6] = dose: 100.0 mg/kg/injection, schedule: Q01DX001 (ip), vehicle: other
[7] = dose: 200.0 mg/kg/injection, schedule: Q01DX001 (ip), vehicle: other
[8] = dose: 400.0 mg/kg/injection, schedule: Q01DX001 (ip), vehicle: other
[9] = dose: 100.0 mg/kg/injection, schedule: Q04DX003 (ip), vehicle: Klucel (hydroxypropylcellulose) (HPC)
[10] = dose: 50.0 mg/kg/injection, schedule: Q01DX009 (ip), vehicle: saline with Tween-80
[11] = dose: 100.0 mg/kg/injection, schedule: Q01DX009 (ip), vehicle: saline with Tween-80
[12] = dose: 200.0 mg/kg/injection, schedule: Q01DX009 (ip), vehicle: saline with Tween-80
[13] = dose: 400.0 mg/kg/injection, schedule: Q01DX001 (ip), vehicle: carboxymethylcellulose (CMC)
[14] = dose: 100.0 mg/kg/injection, schedule: Q04DX002 (ip), vehicle: saline
[15] = dose: 200.0 mg/kg/injection, schedule: Q04DX002 (ip), vehicle: saline
[16] = dose: 400.0 mg/kg/injection, schedule: Q04DX002 (ip), vehicle: saline
[17] = dose: 100.0 mg/kg/injection, schedule: Q04DX003 (ip), vehicle: saline with Tween-80
[18] = dose: 200.0 mg/kg/injection, schedule: Q04DX003 (ip), vehicle: saline with Tween-80
[19] = dose: 400.0 mg/kg/injection, schedule: Q04DX003 (ip), vehicle: saline with Tween-80

Measured: T/C

Cc1ccc(S(=O)(=O)OC2C(O)C(CO)OC2n2c(Br)c(C(N)=O)c3c(N)ncnc32)cc1 (stereo unspecified)
inactive: dose: 25.0 mg/kg/injection, schedule: Q01DX009 (ip), vehicle: water 100 % of control | dose: 50.0 mg/kg/injection, schedule: Q01DX009 (ip), vehicle: water 97 % of control | dose: 100.0 mg/kg/injection, schedule: Q01DX009 (ip), vehicle: water 95 % of control | dose: 200.0 mg/kg/injection, schedule: Q01DX009 (ip), vehicle: water 93 % of control

CC(CCO)CCC1OC1(C)C (stereo unspecified)
inactive: [1] 103 % of control | dose: 200.0 mg/kg/injection, schedule: Q01DX001 (ip), vehicle: saline 105 % of control | [2] 103 % of control

O=[N+]([O-])c1cccc(C[n+]2ccccc2C2OCCO2)c1
inactive: dose: 35.0 mg/kg/injection, schedule: Q01DX009 (ip), vehicle: saline 95 % of control

O=C1C(Cl)=C(Nc2ccc3cn[nH]c3c2)C(=O)c2ccccc21
inactive: [3] 102 % of control | [4] 100 % of control | [5] 102 % of control

CCCCCCCCCCCCCCCCCCc1cc(C)ccc1C
inactive: [6] 107 % of control | [7] 90 % of control | [8] 104 % of control

Cc1cc(OC(=O)Nc2cc([N+](=O)[O-])ccc2F)cc(C)c1Cl
inactive: [9] 89 % of control | dose: 200.0 mg/kg/injection, schedule: Q04DX003 (ip), vehicle: Klucel (hydroxypropylcellulose) (HPC) 91 % of control | dose: 400.0 mg/kg/injection, schedule: Q04DX003 (ip), vehicle: Klucel (hydroxypropylcellulose) (HPC) 93 % of control

C=CCNC(=O)c1ccccc1OCC(=O)O
inactive: dose: 100.0 mg/kg/injection, schedule: Q01DX009 (ip), vehicle: gum acacia 93 % of control | dose: 100.0 mg/kg/injection, schedule: Q04DX003 (ip), vehicle: gum acacia 103 % of control | dose: 200.0 mg/kg/injection, schedule: Q01DX009 (ip), vehicle: gum acacia 88 % of control | dose: 200.0 mg/kg/injection, schedule: Q04DX003 (ip), vehicle: gum acacia 100 % of control | dose: 400.0 mg/kg/injection, schedule: Q01DX009 (ip), vehicle: gum acacia 94 % of control | dose: 400.0 mg/kg/injection, schedule: Q04DX003 (ip), vehicle: gum acacia 97 % of control

CCOC(=O)NCCCCCCNC(=O)OCC
inactive: [10] 97 % of control | [11] 95 % of control | [12] 95 % of control

CC(=O)OCc1ccc(OC(C)=O)cn1
inactive: [4] 100 % of control | [5] 103 % of control | [13] 94 % of control

CC12CCC(=O)N1C(C(=O)O)CS2 (stereo unspecified)
inactive: [14] 91 % of control | [15] 102 % of control | [16] 98 % of control

CCOC(=O)c1cc2c(-c3ccccc3)c(-c3ccccc3)c(-c3ccccc3)c(-c3ccccc3)n2n1
inactive: [1] 93 % of control | [2] 93 % of control

CCSSCC(N)C(=O)O (stereo unspecified)
inactive: [6] 94 % of control | [7] 103 % of control | [8] 103 % of control

NCc1cccc(OCCOc2ccccc2)c1
inactive: dose: 100.0 mg/kg/injection, schedule: Q01DX001 (ip), vehicle: saline with Tween-80 102 % of control | dose: 200.0 mg/kg/injection, schedule: Q01DX001 (ip), vehicle: saline with Tween-80 97 % of control | dose: 400.0 mg/kg/injection, schedule: Q01DX001 (ip), vehicle: saline with Tween-80 103 % of control

COc1ccc(N=C=Nc2ccc(OC)cc2)cc1
inactive: dose: 12.0 mg/kg/injection, schedule: Q01DX009 (ip), vehicle: Klucel (hydroxypropylcellulose) (HPC) 101 % of control | dose: 25.0 mg/kg/injection, schedule: Q01DX009 (ip), vehicle: Klucel (hydroxypropylcellulose) (HPC) 108 % of control | dose: 25.0 mg/kg/injection, schedule: Q04DX003 (ip), vehicle: Klucel (hydroxypropylcellulose) (HPC) 96 % of control | dose: 50.0 mg/kg/injection, schedule: Q01DX009 (ip), vehicle: Klucel (hydroxypropylcellulose) (HPC) 90 % of control | dose: 50.0 mg/kg/injection, schedule: Q04DX003 (ip), vehicle: Klucel (hydroxypropylcellulose) (HPC) 93 % of control | [9] 98 % of control

Cc1cc([N+](=O)[O-])c(Cl)c([N+](=O)[O-])c1
inactive: [4] 91 % of control | [5] 89 % of control | [13] 100 % of control

COc1ccc(F)cc1CCl
inactive: dose: 100.0 mg/kg/injection, schedule: Q04DX002 (ip), vehicle: Klucel (hydroxypropylcellulose) (HPC) 98 % of control | dose: 200.0 mg/kg/injection, schedule: Q04DX002 (ip), vehicle: Klucel (hydroxypropylcellulose) (HPC) 98 % of control | dose: 400.0 mg/kg/injection, schedule: Q04DX002 (ip), vehicle: Klucel (hydroxypropylcellulose) (HPC) 86 % of control

COC(=O)C(C(=O)OC)C(Br)C(Br)C(Br)c1ccccc1 (stereo unspecified)
inactive: dose: 75.0 mg/kg/injection, schedule: Q01DX001 (ip), vehicle: other 91 % of control | dose: 150.0 mg/kg/injection, schedule: Q01DX001 (ip), vehicle: other 94 % of control | dose: 300.0 mg/kg/injection, schedule: Q01DX001 (ip), vehicle: other 96 % of control

NC(=O)NC(N)=S
inactive: [17] 99 % of control | [18] 103 % of control | [19] 103 % of control

CC/C=C/C1(C(C)C)C(=O)NC(=O)NC1=O
inactive: dose: 75.0 mg/kg/injection, schedule: Q01DX001 (ip), vehicle: saline 103 % of control | dose: 150.0 mg/kg/injection, schedule: Q01DX001 (ip), vehicle: saline 105 % of control

CCS(=O)(=O)Cc1ccccc1
inactive: dose: 100.0 mg/kg/injection, schedule: Q01DX009 (ip), vehicle: Klucel (hydroxypropylcellulose) (HPC) 100 % of control | dose: 200.0 mg/kg/injection, schedule: Q01DX009 (ip), vehicle: Klucel (hydroxypropylcellulose) (HPC) 106 % of control | dose: 400.0 mg/kg/injection, schedule: Q01DX009 (ip), vehicle: Klucel (hydroxypropylcellulose) (HPC) 102 % of control

CN(CC#N)c1ncnc(Cl)c1[N+](=O)[O-]
inactive: [3] 95 % of control | [4] 98 % of control | [5] 88 % of control | [13] 98 % of control

CCOC(=O)C(Nc1ccccc1)C(=O)OCC
inactive: [17] 92 % of control | [18] 97 % of control | [19] 100 % of control

C/C=C/c1ccccc1C(C)=O
inactive: dose: 100.0 mg/kg/injection, schedule: Q04DX003 (sc), vehicle: olive oil, sesame oil, peanut oil 105 % of control | dose: 200.0 mg/kg/injection, schedule: Q04DX003 (sc), vehicle: olive oil, sesame oil, peanut oil 105 % of control | dose: 400.0 mg/kg/injection, schedule: Q04DX003 (sc), vehicle: olive oil, sesame oil, peanut oil 100 % of control

Cc1cccc(C)c1N=Nc1sc(N)nc1C
inactive: dose: 75.0 mg/kg/injection, schedule: Q01DX001 (ip), vehicle: acetone 114 % of control | dose: 150.0 mg/kg/injection, schedule: Q01DX001 (ip), vehicle: acetone 94 % of control | dose: 300.0 mg/kg/injection, schedule: Q01DX001 (ip), vehicle: acetone 110 % of control

CCOC(CN=CN(C)C)OCC
inactive: dose: 100.0 mg/kg/injection, schedule: Q04DX003 (ip), vehicle: saline 94 % of control | dose: 200.0 mg/kg/injection, schedule: Q04DX003 (ip), vehicle: saline 105 % of control | dose: 400.0 mg/kg/injection, schedule: Q04DX003 (ip), vehicle: saline 97 % of control

O=[N+]([O-])c1ccc(C2=NCCO2)cc1
inactive: [14] 104 % of control | [15] 114 % of control | [16] 104 % of control

CCOC(=O)C1N=C(c2ccccc2)OC1c1ccccc1 (stereo unspecified)
inactive: [10] 94 % of control | [11] 94 % of control | [12] 102 % of control

N#CC12CCC(c3ccccc31)c1ccccc12
inactive: dose: 100.0 mg/kg/injection, schedule: Q04DX002 (ip), vehicle: gum acacia 99 % of control | dose: 200.0 mg/kg/injection, schedule: Q04DX002 (ip), vehicle: gum acacia 101 % of control | dose: 400.0 mg/kg/injection, schedule: Q04DX002 (ip), vehicle: gum acacia 92 % of control

CCCCCCCCOB(OCCCCCCCC)OCCCCCCCC
inactive: [3] 96 % of control | [4] 100 % of control | [11] 96 % of control | [17] 98 % of control | [5] 96 % of control | [12] 95 % of control | [18] 94 % of control | [13] 100 % of control
